Measurements published in US5132432A, “Chemically reactive pyrenyloxy sulfonic acid dyes” (Molecular Probes, Inc., priority 1989, dated 1992).
Where a name gives a salt, the structure may show the parent alone. Read-outs that look alike come from different tables or passages of the source.

Key:
Swiss-Webster mice = conditions: mouse, in vivo; cited from earlier work
[1] = Spectral properties (absorption/emission) of new pyrenyloxy sulfonic acid dyes, Table 4; format: physicochemical; conditions: 50 mM aqueous potassium phosphate buffer at pH 8.0
Description: Stock solutions were prepared by accurately weighing and dissolving 5-10 mg samples of the compounds in 2.000 ml water. A 10 μl aliquot of the stock solution was diluted into 2.00 ml of 50 mM potassium phosphate buffer at pH 8.0. Absorbance solutions were prepared by further diluting 200 μl of the diluted stock solution to 2.000 ml with 50 mM potassium phosphate buffer at pH 8.0. Absorption data was collected on an IBM Model 9420 UV/Visible Spectrophotometer and extinction coefficients were determined by standard Beer's Law calculations.
Uncorrected fluorescence data was obtained on a Perkin-Elmer Model 650-40 Fluorescence Spectrophotometer equipped with a Perkin-Elmer/Hitachi 057 X-Y Recorder using a ten- to twentyfold dilution of the absorbance solutions. Fluorescence of the pyrenyloxy sulfonic acid dyes was determined for the reactive dyes and for their conjugates with model compounds by dissolving the dye at a concentration above 1×10^-8M in an appropriate solvent such as water, methanol, ethanol, or dimethylsulfoxide and measurement of the fluorescence in a suitable instrument, such as a fluorescence spectrometer or fluorescence microscope or flow cytometer. Fluorescence could also be observed for the dyes in solution by visual inspection with illumination by a suitable source that emits light at wavelengths of less than 420 nm.

[2] = Quantum yield relative to quinine sulfate; format: physicochemical; conditions: in 50 mM phosphate buffer at pH 8.0
From the text: An estimate of the quantum yield of the dyes relative to quinine sulfate (quantum yield=0.55 in 1N sulfuric acid) was obtained by integrating the emission spectrum of the dye excited at the same wavelength and optical density as the standard.

[3] = Comparison of spectral properties of reactive dyes, Table 1; format: physicochemical; conditions: for Quantum Yield: in aqueous solution, grade in words
From the text: A number of dyes have been proposed in the literature that can be excited and detected at wavelengths less than 500 nm. Several chemically reactive fluorophores that can be excited in the near ultraviolet and short wavelength visible region of the spectrum have been described. […] These proposed tracers are derived from naphthalene derivatives such as 5-dimethylaminonaphthalene-1-sulfonic acid (Dansyl) [Weber, Biochem. J. 41:145 (1952); Rinderknecht, Experientin 16:430 (1960)], 3-(isothiocyanato)naphthalene-1,5-disulfonic acid [Braunitzer, et al., Hoppe-Seyler's Z. Physiol. […] Chem. 358:505 (1977)], pyrene derivatives such as pyrene-1-butyric acid (PBA) [Malencik & Anderson, Biochemistry 11:3022 (1972)], 8-isothiocyanatopyrene-1,3,6-trisulfonic acid (IPTS) [Braunitzer,et al., Hoppe-Seyler's Z. Physiol. Chem. 354:1536 (1973)] and 8-hydroxypyrene-1,3,6-trisulfonyl chloride [Wolfbeis, Fresenies Z. Anal. Chem. 320:271 (1985)], stilbene derivatives such as 4-acetamido-4'-isothiocyanatostilbene-2,2'-disulfonic acid (SITS) [Cornelisse & Ploem, J. Histochem. Cytochem. 24:72 (1976)], and coumarin dyes such as 3-carboxy-7-hydroxycoumarin [Baker & Collis, J. Chem. Soc. 1949, S 12 (1949)], 7-hydroxy-4-methylumbelliferone-3-acetic acid (4-MUA) [Khalfan, et al., Biochem. J. 209:265 (1983)], 7-amino-4-methylcoumarin-3-acetic acid (AMCA) [Khalfan, et al., Histochem. J. 18:497 (1986)] and 7-diethylaminocoumarin [Staines, et al. (1988)].

[4] = Emission spectra comparison of equimolar solutions / normalized spectra (FIG. 2, FIG. 3); format: physicochemical
From the text: The narrower spectral width makes the dyes particularly valuable for applications requiring multiple dyes such as flow cytometry, DNA sequencing [Smith, et at. (1985)] and multiparameter microscopy. The utility of the objects of this invention in multiparameter applications is illustrated in FIG. 3. […] The extinction coefficients for the pyrenyloxy sulfonic acid dyes are generally greater than 25,000 cm^-1 M^-1 and the quantum yields of the dyes in aqueous solution are generally above 0.5. In FIG. 4, the emission intensities of bovine serum albumin (BSA) conjugates of the pyrene isothiocyanate IPTS are compared to the BSA conjugates of compound 9. […] The subject dyes show only minor spectral shifts and intensity changes between water, methanol, and ethanol and have absorption and emission spectra that lack significant pH dependence between pH 6 and 10, as illustrated in FIG. 5. Table 4 lists the approximate spectral properties of a number of the dyes and intermediates that are the subject of this invention.

[5] = Solubility in water / aqueous solution; conditions: solubility of the reactive form of the dye; grade in words
[6] = background statement; cited from earlier work
[7] = system: anion transport systems in red blood cells; conditions: cited from earlier work
[8] = system: microsomal glucose-6-phosphatase; conditions: cited from earlier work
[9] = in 1N sulfuric acid; cited from earlier work
[10] = full bandwidth at half peak height

O=S(=O)([O-])c1cc(O)c2ccc3c(S(=O)(=O)[O-])cc(S(=O)(=O)[O-])c4ccc1c2c34.[Na+].[Na+].[Na+] [8-hydroxypyrene-1,3,6-trisulfonic acid, trisodium salt]
toxicity to Swiss-Webster mice (Swiss-Webster mice): nontoxic to Swiss-Webster mice

O=S(=O)(O)c1cc(O)c2ccc3c(S(=O)(=O)O)cc(S(=O)(=O)O)c4ccc1c2c34 [8-hydroxypyrene-1,3,6-trisulfonic acid]
LD50 (Swiss-Webster mice): exceeding 1000 mg/kg

NNC(=O)COc1cc(S(=O)(=O)[O-])c2ccc3c(S(=O)(=O)[O-])cc(S(=O)(=O)[O-])c4ccc1c2c43.[Na+].[Na+].[Na+] [Compound 12, 1,3,6-Trisulfo-8-pyrenyloxyacethydrazide, trisodium salt]
Emission Band-width [1]: 50 nm
Emission at 514 nm [1]: 3.9 % of max
Abs Max ([1]; first (longer-wavelength) maximum): 399 nm
Abs Max ([1]; second (shorter-wavelength) maximum): 377 nm
Quantum Yield [2]: 0.54
ε ([3]; at first maximum): 28000 M⁻¹ cm⁻¹
ε ([3]; at second maximum): 23300 M⁻¹ cm⁻¹
Abs Max ([3]; first maximum): 399 nm
Emission Bandwidth [3, 10]: 50 nm
Emission Bandwidth [cm^-1] [3, 10]: 2168 cm⁻¹
Quantum Yield [3]: high
% Emission at 514 nm ([3]; percent of maximum emission at 514 nm): 3.8 % of max
Abs Max ([3]; second maximum): 376 nm
resolution of emission from fluorescein and Lucifer Yellow CH [4]: emission which is well resolved from the emission bands of both these widely used dyes
Water Solubility [5]: high

CC(=O)Nc1ccc(/C=C/c2ccc(N=C=S)cc2S(=O)(=O)O)c(S(=O)(=O)O)c1 [SITS, 4-acetamido-4'-isothiocyanatostilbene-2,2'-disulfonic acid]
% Emission at 514 nm [3]: 19
Abs Max [3]: 337
Em. Max. [3]: 438
Emission Bandwidth [3]: 82
Emission Bandwidth [cm^-1] [3]: 4825
ε [3]: 37400 M⁻¹ cm⁻¹
Quantum Yield [3]: low
aqueous solubility / lipophilicity [6]: high water solubility
effect on anion transport systems in red blood cells [7]: inhibitory effect
effect on microsomal glucose-6-phosphatase [8]: inhibitory effect
Water Solubility [5]: high

C=C[C@H]1C[N@@]2CC[C@H]1C[C@H]2[C@H](O)c1ccnc2ccc(OC)cc12 [quinine sulfate]
quantum yield of standard [9]: 0.55
